# Experimental data as given in patent publication US11753407B2, “Compounds for treating spinal muscular atrophy” (PTC Therapeutics, Inc., priority 2012, dated 2023).
# Experiments:
# [1] = test system: SMN2 minigene mRNA (SMN2-A minigene) in HEK293H cells; assay: SMN2 minigene mRNA splicing RT-qPCR assay in cultured cells; format: cell-based, human; conditions: Homo sapiens, HEK293-H; concentration increasing full length SMN2 mRNA 1.5-fold relative to vehicle-treated cells; HEK293H cells with SMN2-A minigene, 24 hours, 7-point concentration data; read-out: EC1.5x for production of full length SMN2 mRNA
# In short: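 Potency reflects the concentration that lifts full-length SMN2 minigene mRNA 1.5-fold above vehicle in stably transfected HEK293H cells after 24 h of treatment. Transcript abundance came from RT-qPCR as (1+E)^−Ct, normalized to GAPDH; endogenous SMN1/SMN2 are not detected.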
# [2] = test system: Smn protein in SMA patient fibroblast cells (GM03813); assay: Smn protein assay in cultured cells (SMN HTRF); format: cell-based, human; conditions: SMA patient fibroblast cells, 48 hours; for EC1.5x for Smn protein expression: 7-point concentration curve, SMN HTRF, concentration producing 1.5 times Smn protein vs DMSO vehicle control; for maximum fold (Fold) increase of Smn protein: 7-point concentration data, fold relative to vehicle control
# In short: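 Smn protein abundance in treated SMA fibroblasts was measured by HTRF after 48 h compound exposure. The reported EC1.5× is the concentration producing 1.5 times vehicle Smn levels.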
melting point,SMILES,EC (1.5-fold increase) [1],EC1.5x for Smn protein expression [2],maximum fold (Fold) increase of Smn protein [2]
231 to 235 °C,"CCc1cc(-c2cc(=O)n3cc(N4CCN5CCC[C@@H]5C4)ccc3n2)cn2cc(C)nc12 [Compound 794, 2-(8-ethyl-2-methylimidazo[1,2-a]pyridin-6-yl)-7-[(8aR)-hexahydropyrrolo[1,2-a]pyrazin-2(1H)-yl]-4H-pyrido[1,2-a]pyrimidin-4-one]",< 0.1 µM,**** (an EC1.5x≤0.3 μM is indicated by four stars (****)),***** (a fold increase >1.65 is indicated by five stars (*****))
229 to 233 °C,"CCc1cc(-c2cc(=O)n3cc(N4CCN5CCC[C@H]5C4)ccc3n2)cn2cc(C)nc12 [Compound 795, 2-(8-ethyl-2-methylimidazo[1,2-a]pyridin-6-yl)-7-[(8aS)-hexahydropyrrolo[1,2-a]pyrazin-2(1H)-yl]-4H-pyrido[1,2-a]pyrimidin-4-one]",< 0.1 µM,**** (an EC1.5x≤0.3 μM is indicated by four stars (****)),***** (a fold increase >1.65 is indicated by five stars (*****))
214 to 217 °C,"Cc1cn2nc(-c3cc(=O)n4cc(N5CC[C@H](CN)C5)ccc4n3)cc2c(C)n1 [Compound 797, 7-[(3R)-3-(aminomethyl)pyrrolidin-1-yl]-2-(4,6-dimethylpyrazolo[1,5-a]pyrazin-2-yl)-4H-pyrido[1,2-a]pyrimidin-4-one]",1 to 3 µM,* (An EC1.5× for Smn protein expression between >3 μM and ≤10 μM is indicated by one star (*)),*** (a fold increase between >1.35 and ≤1.5 is indicated by three stars (***))
182 to 184 °C,"COc1ccc(-c2cc(=O)n3cc(N4CCNCC4)ccc3n2)cc1 [Cpd 1, 2-(4-methoxyphenyl)-7-(piperazin-1-yl)-4H-pyrido[1,2-a]pyrimidin-4-one]",0.3 to 1 µM,,** (a fold increase between >1.2 and ≤1.35 is indicated by two stars (**))
193 to 198 °C,"Cc1ccc2nc(-c3cc(=O)n4cc(N5CCNCC5)ccc4n3)cn2c1 [Cpd 29, 2-(6-methylimidazo[1,2-a]pyridin-2-yl)-7-(piperazin-1-yl)-4H-pyrido[1,2-a]pyrimidin-4-one]",3 to 30 µM,,*** (a fold increase between >1.35 and ≤1.5 is indicated by three stars (***))
175 to 179 °C,"COc1ccc(-c2cnc3cc(N4CCNCC4)ccn3c2=O)cc1OC [Cpd 52, 3-(3,4-dimethoxyphenyl)-8-(piperazin-1-yl)-4H-pyrido[1,2-a]pyrimidin-4-one]",3 to 30 µM,,* (A maximum fold increase of ≤1.2 is indicated by one star (*))
185 to 187 °C,"COc1ccc(-c2cc(=O)n3cc(N4CCNCC4)cc(OC)c3n2)cc1OC [Cpd 70, 2-(3,4-dimethoxyphenyl)-9-methoxy-7-(piperazin-1-yl)-4H-pyrido[1,2-a]pyrimidin-4-one]",1 to 3 µM,,* (A maximum fold increase of ≤1.2 is indicated by one star (*))
191 to 195 °C,"COc1ccc(-c2cc(=O)n3cc(N4CCNCC4)ccc3n2)cc1F [Cpd 72, 2-(3-fluoro-4-methoxyphenyl)-7-(piperazin-1-yl)-4H-pyrido[1,2-a]pyrimidin-4-one]",< 0.1 µM,*** (an EC1.5× between >0.3 μM and ≤1 μM is indicated by three stars (***)),*** (a fold increase between >1.35 and ≤1.5 is indicated by three stars (***))
221 to 225 °C,"Cc1cn2cc(-c3cc(=O)n4cc(N5CCNCC5)ccc4n3)nc2cn1 [Cpd 74, 2-(6-methylimidazo[1,2-a]pyrazin-2-yl)-7-(piperazin-1-yl)-4H-pyrido[1,2-a]pyrimidin-4-one]",< 0.1 µM,*** (an EC1.5× between >0.3 μM and ≤1 μM is indicated by three stars (***)),***** (a fold increase >1.65 is indicated by five stars (*****))
158 to 162 °C,"COc1ccc(-c2cc(=O)n3cc(N4CCNCC4)ccc3n2)cc1OC(F)(F)F [Cpd 81, 2-[4-methoxy-3-(trifluoromethoxy)phenyl]-7-(piperazin-1-yl)-4H-pyrido[1,2-a]pyrimidin-4-one]",0.3 to 1 µM,,** (a fold increase between >1.2 and ≤1.35 is indicated by two stars (**))

# The remaining lines, values behind:
SMILES,melting point,EC (1.5-fold increase) [1],EC1.5x for Smn protein expression [2],maximum fold (Fold) increase of Smn protein [2]
"CCc1nc(C)cn2nc(-c3cc(=O)n4cc(N5CCN[C@@H](C)C5)cc(C)c4n3)cc12 [Compound 787, 2-(4-ethyl-6-methylpyrazolo[1,5-a]pyrazin-2-yl)-9-methyl-7-[(3S)-3-methylpiperazin-1-yl]-4H-pyrido[1,2-a]pyrimidin-4-one]",227 to 236 °C,< 0.1 µM,**** (an EC1.5x≤0.3 μM is indicated by four stars (****)),***** (a fold increase >1.65 is indicated by five stars (*****))
"Cc1cc(C2CCN(CCO)CC2)cn2c(=O)cc(-c3ccc4c(cnn4C)c3)nc12 [Compound 788, 7-[1-(2-hydroxyethyl)piperidin-4-yl]-9-methyl-2-(1-methyl-1H-indazol-5-yl)-4H-pyrido[1,2-a]pyrimidin-4-one]",225 to 228 °C,< 0.1 µM,**** (an EC1.5x≤0.3 μM is indicated by four stars (****)),***** (a fold increase >1.65 is indicated by five stars (*****))
"CCc1nc(C)cn2nc(-c3cc(=O)n4cc(N5CCN(C)[C@@H](C)C5)cc(C)c4n3)cc12 [Compound 789, 7-[(3S)-3,4-dimethylpiperazin-1-yl]-2-(4-ethyl-6-methylpyrazolo[1,5-a]pyrazin-2-yl)-9-methyl-4H-pyrido[1,2-a]pyrimidin-4-one]",235 to 241 °C,< 0.1 µM,**** (an EC1.5x≤0.3 μM is indicated by four stars (****)),***** (a fold increase >1.65 is indicated by five stars (*****))
"Cc1nc(C2=CCNCC2)cn2c(=O)cc(-c3ccc4nn(C)cc4c3)nc12 [Compound 791, 9-methyl-2-(2-methyl-2H-indazol-5-yl)-7-(1,2,3,6-tetrahydropyridin-4-yl)-4H-pyrazino[1,2-a]pyrimidin-4-one]",> 240 °C (dec.),< 0.1 µM,**** (an EC1.5x≤0.3 μM is indicated by four stars (****)),***** (a fold increase >1.65 is indicated by five stars (*****))
"CCc1nc(C)cn2nc(-c3cc(=O)n4cc(C5CCN(C6CCC6)CC5)cc(C)c4n3)cc12 [Compound 792, 7-(1-cyclobutylpiperidin-4-yl)-2-(4-ethyl-6-methylpyrazolo[1,5-a]pyrazin-2-yl)-9-methyl-4H-pyrido[1,2-a]pyrimidin-4-one]",231 to 237 °C,< 0.1 µM,*** (an EC1.5× between >0.3 μM and ≤1 μM is indicated by three stars (***)),***** (a fold increase >1.65 is indicated by five stars (*****))
"CCc1nc(C)cn2nc(-c3cc(=O)n4cc(C5CCN(CCO)CC5)cc(C)c4n3)cc12 [Compound 793, 2-(4-ethyl-6-methylpyrazolo[1,5-a]pyrazin-2-yl)-7-[1-(2-hydroxyethyl)piperidin-4-yl]-9-methyl-4H-pyrido[1,2-a]pyrimidin-4-one]",210 to 216 °C,< 0.1 µM,**** (an EC1.5x≤0.3 μM is indicated by four stars (****)),***** (a fold increase >1.65 is indicated by five stars (*****))
"Cc1nc(C2CCNCC2)cn2c(=O)cc(-c3ccc4nn(C)cc4c3)nc12 [Compound 796, 9-methyl-2-(2-methyl-2H-indazol-5-yl)-7-(piperidin-4-yl)-4H-pyrazino[1,2-a]pyrimidin-4-one]",229 to 235 °C,< 0.1 µM,**** (an EC1.5x≤0.3 μM is indicated by four stars (****)),***** (a fold increase >1.65 is indicated by five stars (*****))
"Cc1cn2nc(-c3cc(=O)n4cc(N5CC[C@H](CN(C)C)C5)ccc4n3)cc2c(C)n1 [Compound 799, 7-{(3R)-3-[(dimethylamino)methyl]pyrrolidin-1-yl}-2-(4,6-dimethylpyrazolo[1,5-a]pyrazin-2-yl)-4H-pyrido[1,2-a]pyrimidin-4-one]",229 to 231 °C,< 0.1 µM,**** (an EC1.5x≤0.3 μM is indicated by four stars (****)),***** (a fold increase >1.65 is indicated by five stars (*****))
"Cc1cn2nc(-c3cc(=O)n4cc(C5C[C@H](C)N[C@@H](C)C5)ccc4n3)cc2c(C)n1 (stereo partly drawn) [Compound 800, 7-[(2S,6S)-2,6-dimethylpiperidin-4-yl]-2-(4,6-dimethylpyrazolo[1,5-a]pyrazin-2-yl)-4H-pyrido[1,2-a]pyrimidin-4-one]",248 to 250 °C,< 0.1 µM,**** (an EC1.5x≤0.3 μM is indicated by four stars (****)),***** (a fold increase >1.65 is indicated by five stars (*****))
